{"source": "patent US8440610B2", "about": "“Mapkap kinase-2 as a specific target for blocking proliferation of P53-defective cells” (Massachusetts Institute of Technology, priority 2004, dated 2013)", "key": {"[1]": {"test_system": "H-Ras-V12 transformed p53−/− MEFs", "assay": "Tumor formation after implantation of chemotherapy-treated cells in nude mice", "type": "in vivo", "details": "fifteen days; for tumor formation: MAPKAP kinase-2 siRNA-transfected cells pre-treated with 1 μM cisplatin or 0.1 μM doxorubicin before implantation; for size and weight of tumors relative to tumors formed by untreated cells: control siRNA-transfected cells pre-treated with 1 μM cisplatin or 0.1 μM doxorubicin before implantation", "protocol": "To establish whether the absence of MAPKAP kinase-2 could also enhance the anti-tumorigenic effect of cisplatin or doxorubicin in vivo, we introduced control or MAPKAP kinase-2 siRNAs into H-Ras-V12 transformed p53^−/− MEFs, treated them with either vehicle alone, 1 μM cisplatin or 0.1 μM doxorubicin, and then implanted them into nude mice. Each animal received two injections of MAPKAP kinase-2 siRNA-transfected cells (left flank), and two injections of control siRNA transfected cells (right flank), and tumor formation was assessed at fifteen days. […] In general, the size of the tumors resulting from injection of MAPKAP kinase-2 depleted cells was larger than that from control siRNA-transfected cells (FIGS. 17A, 17B, and 17D).\nMurine tumor models. H-Ras-V 12-transformed p53^−/− MEFs were used for in vivo tumor formation assays. Cells were transfected with siRNA oligonucleotides against GFP or murine MAPKAP kinase-2 for forty-eight hours, then mock treated or incubated with 0.1 μM doxorubicin or 1 μM cisplatin for eight hours, washed three times in growth media, three times in PBS, trypsinized, and resuspended at a concentration of 10^7 cells/ml in PBS. 10^6 cells were subcutaneously injected into the flanks of nude mice (Ncr nu/nu, Taconic)."}, "[2]": {"test_system": "H-Ras-V12 transformed p53−/− MEFs", "assay": "Tumor regression assay of established tumors in nude mice", "type": "in vivo", "details": "MK2 depleted tumors; for tumor diameter at start of treatment: before treatment; for tumor diameter after fourteen days of treatment: cisplatin 2 mg/kg or doxorubicin 4 mg/kg intraperitoneal 3× per week", "protocol": "For tumor regression assays, H-Ras-V12 transformed p53^−/− MEFs were stably transfected with a lentiviral transfer vector encoding for shRNA targeting either MAPKAP kinase-2 or luciferase. 10^6 cells were injected into the flanks of nude mice as above, and tumors were allowed to form for twelve days. Mice were then treated with either cisplatin (2 mg/kg, intraperitoneal administration 3× per week) or doxorubicin (4 mg/kg, intraperitoneal administration 3× per week), monitored for a total of twenty-six days, and then sacrificed. Tumor diameter was measured periodically during growth and tumors were weighed at the endpoint. Experiments were performed in quadruplicate, and data plotted as sample means with error bars showing standard deviation.\nWe investigated whether the chemo-sensitizing effect of MK2 depletion in p53 null cells in culture could also be observed when pre-existing p53 deficient tumors were treated with DNA damaging drugs in vivo. In these experiments HRas-V12 transformed p53^−/− MEFs were stably transfected with control shRNA or MK2 shRNA expressed from a murine U6 promoter, using a lentiviral delivering system (FIG. 18A). The lentiviral transfer vector also encoded GFP under the control of a CMV promoter, allowing for fluorescent detection of tumors in situ. Tumors were induced by injection of 10^6 cells into the flanks of nude mice. Twelve days later ˜1 cm diameter tumors had formed at all injection sites, and treatment with cisplatin, doxorubicin, or vehicle was begun (FIG. 18B). In the absence of treatment with DNA damaging drugs, the tumors arising from the MK2 depleted cells in the right flanks of these animals grew slightly larger than those of the luciferase shRNA control cells in the left flanks (FIG. 18B-18D). […] Tumors depleted of MK2 shrank from 1.3 cm to 0.4 cm over fourteen days when treated with cisplatin, and from 1.4 to 0.5 cm when treated with doxorubicin. Thus, the sensitizing effect of MK2 depletion on DNA damage induced cell death in p53-deficient primary cells observed in cell culture was also maintained in vivo."}, "p38 MAPK/MK2 pathway": {"test_system": "p38 MAPK/MK2 pathway", "assay": "Immunoblot of p38 MAPK/MK2 activation after DNA-damaging drugs in U2OS cells", "type": "cell-based, human", "details": "U2OS cells, 10 μM drug", "protocol": "14-3-3 pull-down assays, immunoblotting, and immunofluorescence. U2OS cells were lysed in lysis buffer: 50 mM Tris/HCl, pH7.8, 150 mM NaCl, 1.0% NP-40, 5 mM EDTA, 2 mM DTT, 8 μg/ml pepstatin, 8 μg/ml aprotinin, 8 μg/ml leupeptin, 2 mM Na3VO4, 10 mM NaF, 1 μM microcystin for twenty minutes at 4° C. Clarified lysates (0.5-2 mg protein) were incubated with 20 μL glutathione beads or amylose beads containing 10-20 μg 14-3-3-GST or 14-3-3-MBP, respectively, for 120 minutes at 4° C. Following washing, lysates and bead-bound proteins were analysed by SDS-PAGE, followed by transfer to PVDF membranes and immunoblotted with the indicated antibodies. For immunofluorescence experiments, U2OS cells were seeded onto 18 mm^2 coverslips, irradiated or mock-treated, fixed, extracted, and immunostained as described previously (Clapperton et al., Nat. Struct. Mol. Biol., 11:512-518, 2004)."}}, "data": [{"smiles": "N.N.[Cl][Pt][Cl]", "note": "[cisplatin]", "values": [{"measurement": "tumor formation", "setting": "[1]", "result": "completely eliminated the formation of tumors"}, {"measurement": "size and weight of tumors relative to tumors formed by untreated cells", "setting": "[1]", "result": "~35", "unit": "%"}, {"measurement": "tumor diameter at start of treatment", "setting": "[2]", "result": 1.3, "unit": "cm"}, {"measurement": "tumor diameter after fourteen days of treatment", "setting": "[2]", "result": 0.4, "unit": "cm"}, {"measurement": "time to MK2 activation (reduction in electrophoretic mobility, pThr-344)", "setting": "p38 MAPK/MK2 pathway", "result": "Within one hour"}]}, {"smiles": "COc1cccc2c1C(=O)c1c(O)c3c(c(O)c1C2=O)C[C@@](O)(C(=O)CO)C[C@@H]3O[C@H]1C[C@H](N)[C@H](O)[C@H](C)O1", "note": "[doxorubicin]", "values": [{"measurement": "tumor formation", "setting": "[1]", "result": "completely eliminated the formation of tumors"}, {"measurement": "size and weight of tumors relative to tumors formed by untreated cells", "setting": "[1]", "result": "~35", "unit": "%"}, {"measurement": "tumor diameter at start of treatment", "setting": "[2]", "result": 1.4, "unit": "cm"}, {"measurement": "tumor diameter after fourteen days of treatment", "setting": "[2]", "result": 0.5, "unit": "cm"}, {"measurement": "time to MK2 activation (reduction in electrophoretic mobility, pThr-344)", "setting": "p38 MAPK/MK2 pathway", "result": "Within one hour"}]}]}
